The values that follow come from article PMC12040169 (PLOS Biology, 2025).

Usually viability stands for a read-out of living cells in per cent, often relative to untreated cells.

Each structure is given as a SMILES string.

The nature of the first series: in vitro. As to conditions: human, hela cells.
With `O=C(/C=C/c1ccc(N2N=N2)cc1)/C=C/c1ccc(N2N=N2)cc1` [CBK261638], the viability at 28.5 h, 10 µM amounted to 105%.

The series is the same for the next values; noted with them: human, hela cells, % viability.
As to `COc1ccc(CN2CCC(O)CC2)c(OC)c1` [CBK261522], the viability at 28.5 h, 10 µM turned out to be 95.9%.
In the case of `c1ccc(Oc2cccc(CN3CCN(c4ccccn4)CC3)c2)cc1` [CBK261523], the viability at 28.5 h, 10 µM turned out to be 102%.
The same measure, in the same setting: the figure for `O=Cc1c(-[n+]2ccc(-c3ccncc3)cc2)nc([O-])n1-c1ccccc1` [CBK261529] is 108%.
For `CN1CCCN(Cc2cccc3ccccc23)CC1` [CBK261531], the viability at 28.5 h, 10 µM came to 96.4%.
On to `O=C(O)CCCC(=O)Nc1ccc(C(=O)O)cc1` [CBK261534], for which the viability at 28.5 h, 10 µM worked out at 86.5%.
The same measure, in the same setting: the figure for `COc1cc(CN2CCN(c3ccccn3)CC2)ccc1O` [CBK261537] is 118%; for `O=C(O)c1cccc(NC(=O)C2CCCCC2C(=O)O)c1` (stereo not shown) [CBK261538] it is 96.6%.
For the compound `COc1cc(CN2CCCN(C)CC2)c([N+](=O)[O-])cc1OC` [CBK261539], the viability at 28.5 h, 10 µM amounted to 90.2%.
Same read-out and setting: as for `CCN1CCN(Cc2c[nH]c3ccccc23)CC1` [CBK261540], the figure is 99.4%.
The same measure, in the same setting: the figure for `Cc1cccc(NC(=S)NNC(=O)CCC(=O)O)c1` [CBK261542] is 85.1%; for `CC(=O)Nc1ccc(S(=O)(=O)N2CCN(C/C=C/c3ccccc3)CC2)cc1` [CBK261545] it is 114%; for `O=C(O)CCC(=O)NNc1ccccc1[N+](=O)[O-]` [CBK261546] it is 95.7%.
In the case of `O=[N+]([O-])c1cc2c(cc1CN1CCN(Cc3ccccc3)CC1)OCO2` [CBK261548], the viability at 28.5 h, 10 µM was 94.7%.
Same read-out and setting: as for `CN1CCN(C(=S)SCC(=O)O)CC1` [CBK261549C], the figure is 92.8%; as for `COc1cc(CN2CCN(C/C=C/c3ccccc3)CC2)c([N+](=O)[O-])cc1OC` [CBK261550], 86.4%; as for `O=C(Nc1ccccc1C(=O)Nc1ccccc1C(=O)O)c1ccccc1` [CBK261551], 91.1%.
`Cc1ccnc(NS(=O)(=O)c2ccc(NS(C)(=O)=O)cc2)n1` [CBK261552]: the viability at 28.5 h, 10 µM stood at 100%.
Same read-out and setting: as for `COc1ccc(OC)c(CN2CCCN(C)CC2)c1` [CBK261554], the figure is 96.1%.
In the case of `CN1CCCN(Cc2ccc([N+](=O)[O-])s2)CC1` [CBK261558], the viability at 28.5 h, 10 µM was determined as 94%.
The same measure, in the same setting: as for `Cc1cc(C)c(NC(=O)C2CCCCN2C23CC4CC(CC(C4)C2)C3)c(C)c1` (stereo not shown) [CBK261559C], the figure is 92.6%; as for `CCOC(=O)C1CCCCN1Cc1ccc(OC)c(O)c1` (stereo not shown) [CBK261560], 98.3%; as for `CCN1CCN(Cc2ccccc2[N+](=O)[O-])CC1` [CBK261561], 109%.
As for `Nc1ccc(-c2cc(N)n(-c3ccc(Oc4ccccc4)c(S(=O)(=O)O)c3)n2)cc1` [CBK261563], the viability at 28.5 h, 10 µM stood at 96.1%.
Same read-out and setting: the figure for `CN1CCC(N(C)Cc2ccc3c(c2)OCO3)CC1` [CBK261564] is 86.8%; for `CN1CCC(N(C)Cc2ccccc2[N+](=O)[O-])CC1` [CBK261565] it is 93.8%.
As to `O=C(O)C1CCCCC1C(=O)Nc1cccc2ccccc12` (stereo not shown) [CBK261569], the viability at 28.5 h, 10 µM was found to be 101%.
For the compound `COc1ccc(N2CCN(Cc3cc([N+](=O)[O-])ccc3Cl)CC2)cc1` [CBK261571], the viability at 28.5 h, 10 µM was 88.9%.
Same read-out and setting: as for `CCOc1cc(CN2CCN(C/C=C/c3ccccc3)CC2)ccc1OC` [CBK261573], the figure is 87.2%; as for `COc1cc(CN2CCN(Cc3ccccc3)CC2)cc([N+](=O)[O-])c1O` [CBK261574], 99%; as for `C/C(=N\NC(N)=S)C(=O)O` [CBK261575], 102%.
Same read-out and setting: as for `CN1CCC(N(C)Cc2coc3ccccc3c2=O)CC1` [CBK261578], the figure is 103%; as for `CCN(CC)C(=O)C1CCCN(Cc2cccc(Oc3ccccc3)c2)C1` (stereo not shown) [CBK261581], 92.6%.
Regarding `COc1cc(C2C(C#N)=C(N)OC3=C2C(=O)CC(c2ccccc2)C3)cc(Br)c1O` (stereo not shown) [CBK261587], the viability at 28.5 h, 10 µM amounted to 87.1%.
The same measure, in the same setting: as for `O=C(CN1CCCCCC1)N/N=C/c1ccccc1Cl` [CBK261589], the figure is 89.4%; as for `NC(=S)NNC(=O)Nc1ccccc1` [CBK261595], 96.6%.
As for `CC(=O)Nc1cccc(NC(=O)CCCC(=O)O)c1` [CBK261598], the viability at 28.5 h, 10 µM came to 97.9%.
Same read-out and setting: the figure for `c1ccc(CCNC2CCCc3c2[nH]c2ccc(C4CCCCC4)cc32)cc1` (stereo not shown) [CBK261602C] is 90.7%.
Still for that read-out and setting: the figure for `O=P(O)(CNCc1ccccc1)CNCc1ccccc1` [CBK261604C] is 118%; for `COC(=O)CCC(=O)NNC(=O)c1cccc(Br)c1` [CBK261606] it is 107%; for `O=C(COC(=O)c1ccc2c(c1)C(=O)N(c1ccc(Oc3ccccc3)cc1)C2=O)c1ccc(Br)cc1` [CBK261607] it is 105%.
Consider `O=C(CNC(=O)c1ccccc1)OCC(=O)c1ccc(Cl)c(Cl)c1` [CBK261611], for which the viability at 28.5 h, 10 µM was found to be 93.9%.
Take `COc1ccc(/C(C)=N\NC(=O)c2cccc(Br)c2)cc1` [CBK261612]: the viability at 28.5 h, 10 µM stood at 100%.
Same read-out and setting: as for `Cc1cc(-c2ccc(/N=C/c3cccc(O)c3O)c(C)c2)ccc1/N=C/c1cccc(O)c1O` [CBK261613], the figure is 82.6%.
With `NS(=O)(=O)c1ccc(NC(=O)/C=C/c2cccc([N+](=O)[O-])c2)cc1` [CBK261616], the viability at 28.5 h, 10 µM is 99.5%.
For the compound `Oc1ccc2ccccc2c1/C=N/c1ccc(-c2cc(-c3ccc(/N=C/c4c(O)ccc5ccccc45)cc3)ncn2)cc1` [CBK261621], the viability at 28.5 h, 10 µM worked out at 104%.
Still for that read-out and setting: as for `COc1ccc2cc(/C=C(\C#N)c3nc(-c4cc5ccccc5oc4=O)cs3)c(Cl)nc2c1` [CBK261623], the figure is 93.9%; as for `O=C(N/N=C/c1ccc(O)cc1)C(=O)N/N=C/c1ccc(O)cc1` [CBK261625], 88.7%.
With `Oc1ccc(Cl)cc1/C=N/c1ccc(-c2cc(-c3ccc(/N=C/c4cc(Cl)ccc4O)cc3)ncn2)cc1` [CBK261626], the viability at 28.5 h, 10 µM is 101%.
Still for that read-out and setting: the figure for `CC1(C)C/C(=N/O)c2cc3c(nc2C1)CC(C)(C)C/C3=N\O` [CBK261629] is 106%; for `CCOC(=O)c1ccccc1NC(=O)CCC(=O)O` [CBK261631] it is 93.5%.
On to `C/C(=N\Nc1nc(C(=O)O)cs1)c1ccccc1` [CBK261633], for which the viability at 28.5 h, 10 µM is 88.7%.
With `COc1ccc2cc(/C=C(\C#N)c3nc(-c4cc5c(ccc6ccccc65)oc4=O)cs3)c(Cl)nc2c1` [CBK261636], the viability at 28.5 h, 10 µM was 94%.
For the compound `O=C(O)CCC(=O)Nc1ccc(-c2ccc([N+](=O)[O-])cc2)cc1` [CBK261637], the viability at 28.5 h, 10 µM came to 105%.
Same read-out and setting: the figure for `Oc1ccc(/C=N/N=C/c2ccc(O)c(O)c2)cc1O` [CBK261641] is 95%.

Still in this series, the particulars now being: human, hela cells, % viability, bulk resorufin, single well.
Turning to `O=[N+]([O-])c1ccc(Cl)cc1CN1CCN(c2ccccc2)CC1` [CBK261556], the viability at 28.5 h, 10 µM came to 89.3%.
Consider `COc1ccccc1N1C(=O)NC(=O)/C(=C/NCCCO)C1=O` [CBK261618], for which the viability at 28.5 h, 10 µM amounted to 87.8%.
The same measure, in the same setting: the figure for `CCN(CC)CCN/C=C1/C(=O)NC(=O)N(Cc2ccccc2)C1=O` [CBK261624] is 88.9%.
